Legend:
Format in all cases: cell-based
SMARCA4 = biological target: T1, SMARCA4 (Homo sapiens, UniProt P51532); experiment: SMARCA4 Western blot degradation in MV4-11 cells; settings: for SMARCA4 MSD MV411 degradation 24 h: average Dmax % / DC50: MV4-11 cells; for DC50 / Dmax: 24 h; for DC50: read-out: SMARCA4 MSD MV411 degradation 24 h: Mean external-Abs DC50; for Dmax: MV4-11, MV4-11 cells, read-out: SMARCA4 MSD MV411 degradation 24 h: average Dmax %
T1 construct: SMARCA2/SMARCA4 protein degradation selectivity in MV4-11 cells; endogenous in cells; host or cells: MV4-11
Procedure, shortened: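 24 h compound exposure, MV4-11; RIPA lysates → SDS-PAGE → NC membrane; anti-SMARCA2/BRM, anti-BRG1, β-actin loading control; LI-COR fluorescence read. DC50 and Dmax at 24 h reported as letter bins.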

SMARCA2 [1] = biological target: T2, SMARCA2 (Homo sapiens, UniProt P51531); experiment: SMARCA2 Western blot degradation in MV4-11 cells; parameters: SMARCA2/SMARCA4 protein degradation selectivity in MV4-11 cells; endogenous in cells; host or cells: MV4-11; settings: for SMARCA2 MSD MV411 degradation 24 h: average Dmax % / DC50 / Selectivity in MV411: MV4-11 cells; for SMARCA2 MSD MV411 degradation 24 h: average Dmax % / DC50 / Dmax: 24 h; for DC50: read-out: SMARCA2 MSD MV411 degradation 24 h: Mean external-Abs DC50; for Selectivity in MV411: SMARCA2/4 selectivity; for Dmax: MV4-11, MV4-11 cells, read-out: SMARCA2 MSD MV411 degradation 24 h: average Dmax %
SMARCA2 [2] = biological target: T2, SMARCA2; experiment: MSD SMARCA2 degradation in A549 cell line; settings: for SMARCA2 MSD A549 degradation 24 h: Average Dmax % / DC50: A549 cells; for DC50 / Dmax: 24 h; for DC50: read-out: SMARCA2 MSD A549 degradation 24 h: Average external-Abs DC50; for Dmax: A549, A549 cells
Procedure, shortened: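 A549 cells treated 24 h with compound, 3-fold series from 1000 nM. Lysates captured on MSD plates and SMARCA2 quantified with anti-SMARCA2 and SULFO-TAG secondary antibodies (electrochemiluminescence). DC50 and Dmax (% degradation at 24 h) reported as letter bins.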

T1 sequence (P51532 whole entry): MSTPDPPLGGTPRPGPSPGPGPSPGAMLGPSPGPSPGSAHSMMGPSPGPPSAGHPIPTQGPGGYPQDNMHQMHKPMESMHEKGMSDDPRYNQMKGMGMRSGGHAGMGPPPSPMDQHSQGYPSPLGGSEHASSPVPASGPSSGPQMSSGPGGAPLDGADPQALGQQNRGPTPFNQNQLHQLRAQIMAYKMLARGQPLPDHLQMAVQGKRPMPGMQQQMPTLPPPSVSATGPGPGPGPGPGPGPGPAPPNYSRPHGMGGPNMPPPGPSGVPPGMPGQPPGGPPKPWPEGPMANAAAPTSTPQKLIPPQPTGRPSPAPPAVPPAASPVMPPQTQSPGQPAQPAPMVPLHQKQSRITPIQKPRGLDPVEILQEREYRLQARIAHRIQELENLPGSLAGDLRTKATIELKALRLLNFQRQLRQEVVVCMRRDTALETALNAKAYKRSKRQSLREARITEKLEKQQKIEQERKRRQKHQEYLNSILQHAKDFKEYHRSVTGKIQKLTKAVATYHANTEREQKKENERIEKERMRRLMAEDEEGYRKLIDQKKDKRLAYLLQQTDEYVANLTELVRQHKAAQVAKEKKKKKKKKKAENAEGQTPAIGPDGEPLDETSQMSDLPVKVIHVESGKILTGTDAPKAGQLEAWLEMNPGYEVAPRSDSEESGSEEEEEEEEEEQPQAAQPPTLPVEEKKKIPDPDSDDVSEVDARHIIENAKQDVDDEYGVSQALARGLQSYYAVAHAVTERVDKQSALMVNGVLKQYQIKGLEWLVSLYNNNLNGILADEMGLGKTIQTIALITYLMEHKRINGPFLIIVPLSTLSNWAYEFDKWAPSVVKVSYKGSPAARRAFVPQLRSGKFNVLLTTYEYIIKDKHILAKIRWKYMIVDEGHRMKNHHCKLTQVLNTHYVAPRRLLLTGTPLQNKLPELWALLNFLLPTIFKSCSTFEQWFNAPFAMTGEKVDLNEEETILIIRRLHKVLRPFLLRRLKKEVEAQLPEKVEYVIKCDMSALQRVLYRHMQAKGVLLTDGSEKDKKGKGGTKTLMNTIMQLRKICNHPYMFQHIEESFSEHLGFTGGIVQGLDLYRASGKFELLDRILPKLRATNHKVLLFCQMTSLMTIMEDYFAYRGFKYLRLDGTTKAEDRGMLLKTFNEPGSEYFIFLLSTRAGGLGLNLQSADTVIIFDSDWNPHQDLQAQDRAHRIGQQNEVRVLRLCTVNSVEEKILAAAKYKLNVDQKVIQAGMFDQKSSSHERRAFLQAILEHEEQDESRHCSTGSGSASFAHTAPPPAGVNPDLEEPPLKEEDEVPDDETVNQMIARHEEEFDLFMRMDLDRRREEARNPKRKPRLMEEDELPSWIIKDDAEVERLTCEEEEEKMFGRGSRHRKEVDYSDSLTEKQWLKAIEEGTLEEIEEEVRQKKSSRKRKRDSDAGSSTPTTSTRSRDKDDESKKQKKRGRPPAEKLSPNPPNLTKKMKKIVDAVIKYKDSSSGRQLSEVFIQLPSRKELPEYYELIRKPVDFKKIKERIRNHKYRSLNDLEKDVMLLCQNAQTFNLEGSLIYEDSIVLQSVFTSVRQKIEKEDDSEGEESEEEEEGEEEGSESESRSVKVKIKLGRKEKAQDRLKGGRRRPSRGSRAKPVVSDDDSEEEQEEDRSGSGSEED
T2 sequence (P51531 whole entry): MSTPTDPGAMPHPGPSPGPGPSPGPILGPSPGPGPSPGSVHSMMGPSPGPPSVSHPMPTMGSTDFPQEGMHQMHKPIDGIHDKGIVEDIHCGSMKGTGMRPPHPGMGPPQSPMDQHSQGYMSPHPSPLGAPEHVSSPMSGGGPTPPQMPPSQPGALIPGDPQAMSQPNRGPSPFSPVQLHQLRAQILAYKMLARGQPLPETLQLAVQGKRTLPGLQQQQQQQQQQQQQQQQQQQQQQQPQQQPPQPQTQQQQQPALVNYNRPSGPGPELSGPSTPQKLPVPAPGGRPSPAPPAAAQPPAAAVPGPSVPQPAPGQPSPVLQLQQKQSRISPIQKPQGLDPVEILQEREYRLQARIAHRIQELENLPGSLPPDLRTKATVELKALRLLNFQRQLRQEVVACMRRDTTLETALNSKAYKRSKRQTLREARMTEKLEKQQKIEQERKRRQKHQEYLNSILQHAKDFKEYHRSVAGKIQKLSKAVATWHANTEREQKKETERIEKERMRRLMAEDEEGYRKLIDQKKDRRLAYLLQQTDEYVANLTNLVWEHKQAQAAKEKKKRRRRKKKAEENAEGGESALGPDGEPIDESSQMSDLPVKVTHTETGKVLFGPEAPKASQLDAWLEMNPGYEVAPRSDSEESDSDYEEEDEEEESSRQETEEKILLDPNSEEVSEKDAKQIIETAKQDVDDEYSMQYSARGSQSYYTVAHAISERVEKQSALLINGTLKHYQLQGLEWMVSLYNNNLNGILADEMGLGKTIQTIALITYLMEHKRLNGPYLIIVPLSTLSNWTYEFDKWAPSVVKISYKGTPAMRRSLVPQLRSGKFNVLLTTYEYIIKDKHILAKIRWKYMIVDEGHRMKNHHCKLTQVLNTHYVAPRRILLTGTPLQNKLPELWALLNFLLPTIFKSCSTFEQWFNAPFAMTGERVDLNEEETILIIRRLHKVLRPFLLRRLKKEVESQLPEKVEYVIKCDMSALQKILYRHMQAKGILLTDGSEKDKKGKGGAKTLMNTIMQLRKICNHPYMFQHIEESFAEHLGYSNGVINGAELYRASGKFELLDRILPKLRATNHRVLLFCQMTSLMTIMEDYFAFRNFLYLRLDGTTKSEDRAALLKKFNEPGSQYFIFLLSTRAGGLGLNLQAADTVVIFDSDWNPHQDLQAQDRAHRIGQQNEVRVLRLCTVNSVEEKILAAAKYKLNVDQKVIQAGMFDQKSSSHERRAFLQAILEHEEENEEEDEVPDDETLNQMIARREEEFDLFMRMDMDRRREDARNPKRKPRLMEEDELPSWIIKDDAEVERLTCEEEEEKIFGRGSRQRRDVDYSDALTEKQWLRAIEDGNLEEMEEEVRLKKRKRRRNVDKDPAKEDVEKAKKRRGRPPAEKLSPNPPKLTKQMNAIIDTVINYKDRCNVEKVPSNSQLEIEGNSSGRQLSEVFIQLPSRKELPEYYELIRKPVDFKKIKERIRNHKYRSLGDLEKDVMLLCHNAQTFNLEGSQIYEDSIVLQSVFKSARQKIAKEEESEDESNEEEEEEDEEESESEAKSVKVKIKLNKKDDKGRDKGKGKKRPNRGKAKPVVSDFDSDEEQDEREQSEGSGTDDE

| SMILES | SMARCA4 MSD MV411 degradation 24 h: average Dmax % (SMARCA4) | DC50 (SMARCA4) | SMARCA2 MSD MV411 degradation 24 h: average Dmax % (SMARCA2 [1]) | DC50 (SMARCA2 [1]) | Selectivity in MV411 (SMARCA2 [1]) | SMARCA2 MSD A549 degradation 24 h: Average Dmax % (SMARCA2 [2]) | DC50 (SMARCA2 [2]) | Dmax (SMARCA4) | Dmax (SMARCA2 [1]) | Dmax (SMARCA2 [2]) |
| --- | --- | --- | --- | --- | --- | --- | --- | --- | --- | --- |
| C#Cc1ccc([C@H](C)NC(=O)[C@@H]2C[C@@H](O)CN2C(=O)[C@@H](NC(=O)[C@H]2CCC3(CC2)C[C@H](N2CCN(c4cnc(N5CCN6c7cc(-c8ccccc8O)nnc7NC[C@H]6C5)nc4)CC2)C3)C(C)(C)C)cc1 (single isomer, unassigned) [I-234] | C (C (50-70% degradation)) | > 100 nM | B (B (>70-90% degradation)) | 10 to 100 nM | C (C (10-100 fold)) | A (A (>90% degradation)) | 50 to 100 nM |  |  |  |
| C#Cc1ccc2c(c1)OCC[C@@H]2NC(=O)[C@@H]1C[C@@H](O)CN1C(=O)[C@@H](NC(=O)N1CC2(CC(N3CCC(c4cnc(N5CCc6[nH]c7nnc(-c8ccccc8O)cc7c6[C@H]5C)nc4)CC3)C2)C1)C(C)(C)C (single isomer, unassigned) [I-235] |  | > 100 nM |  | > 100 nM | D (D (<10 fold)) |  | > 100 nM | < 50% | < 50% | 50 to 70% |
| C#Cc1ccc2c(c1)OCC[C@H]2NC(=O)[C@@H]1C[C@@H](O)CN1C(=O)[C@@H](NC(=O)N1CC2(CC(N3CCC(c4cnc(N5CCc6[nH]c7nnc(-c8ccccc8O)cc7c6[C@H]5C)nc4)CC3)C2)C1)C(C)(C)C (single isomer, unassigned) [I-236] |  | > 100 nM |  | > 100 nM | D (D (<10 fold)) |  | > 100 nM | < 50% | 50 to 70% | 70 to 90% |
| C#Cc1ccc(CNC(=O)[C@@H]2C[C@@H](O)CN2C(=O)[C@@H](NC(=O)[C@H]2CCC3(CC2)C[C@H](N2CCC(N4CC5(CC(N6CCN7c8cc(-c9ccccc9O)nnc8NC[C@H]7C6)C5)C4)CC2)C3)C(C)(C)C)cc1 (single isomer, unassigned) [I-237] | D (D (<50% degradation)) | > 100 nM | B (B (>70-90% degradation)) | 1 to 10 nM | B (B (>100-500 fold)) | A (A (>90% degradation)) | 50 to 100 nM |  |  |  |
| C#Cc1ccc(CNC(=O)[C@@H]2C[C@@H](O)CN2C(=O)[C@@H](NC(=O)[C@H]2CCC3(CC2)C[C@H](N2CCC(N4CC5(CC(N6CCN7c8cc(-c9ccccc9O)nnc8NC[C@H]7C6)C5)C4)CC2)C3)C(C)(C)C)c(Cl)c1 (single isomer, unassigned) [I-238] | D (D (<50% degradation)) | > 100 nM | B (B (>70-90% degradation)) | 10 to 100 nM | C (C (10-100 fold)) | A (A (>90% degradation)) | > 100 nM |  |  |  |
| C#Cc1ccc(CNC(=O)[C@@H]2C[C@@H](O)CN2C(=O)[C@@H](NC(=O)[C@H]2CC3(C2)C[C@H](N2CCN(C(=O)CN4CCN5c6cc(-c7ccccc7O)nnc6NC[C@H]5C4)CC2)C3)C(C)(C)C)cc1 (single isomer, unassigned) [I-239] |  | 10 to 100 nM |  | 1 to 10 nM | D (D (<10 fold)) |  | > 100 nM | > 90% | > 90% | > 90% |
| C#Cc1ccc(CNC(=O)[C@@H]2C[C@@H](O)CN2C(=O)[C@@H](NC(=O)[C@H]2CC3(C2)C[C@H](N2CCC(N4CCC(N5CCN6c7cc(-c8ccccc8O)nnc7NC[C@H]6C5)CC4)CC2)C3)C(C)(C)C)c(O)c1 (single isomer, unassigned) [I-241] |  | 10 to 100 nM |  | 1 to 10 nM | C (C (10-100 fold)) |  | 50 to 100 nM | 70 to 90% | > 90% | > 90% |
| C#Cc1ccc(CNC(=O)[C@@H]2C[C@@H](O)CN2C(=O)[C@@H](NC(=O)CCCN2CCC(N3CC4(CC(N5CCN6c7cc(-c8ccccc8O)nnc7NC[C@H]6C5)C4)C3)CC2)C(C)(C)C)cc1 (single isomer, unassigned) [I-244] |  | > 100 nM |  | 10 to 100 nM | C (C (10-100 fold)) |  | > 100 nM | 50 to 70% | > 90% | > 90% |
| C#Cc1ccc(CNC(=O)[C@@H]2C[C@@H](O)CN2C(=O)[C@@H](NC(=O)[C@H]2CCC3(CC2)C[C@H](N2CCC(N(C)CCN4CCN5c6cc(-c7ccccc7O)nnc6NC[C@H]5C4)CC2)C3)C(C)(C)C)cc1 (single isomer, unassigned) [I-246] |  | > 100 nM |  | 10 to 100 nM | C (C (10-100 fold)) |  | > 100 nM | 50 to 70% | 70 to 90% | > 90% |
| C#Cc1ccc(CNC(=O)[C@@H]2C[C@@H](O)CN2C(=O)[C@@H](NC(=O)[C@H]2CCC3(CC2)C[C@H](N2CCC(N(C)CCN4CCN5c6cc(-c7ccccc7O)nnc6NC[C@H]5C4)CC2)C3)C(C)(C)C)cc1 (single isomer, unassigned) [I-247] | C (C (50-70% degradation)) | > 100 nM | B (B (>70-90% degradation)) | 1 to 10 nM | C (C (10-100 fold)) | A (A (>90% degradation)) | 50 to 100 nM |  |  |  |
| C#Cc1ccc(CNC(=O)[C@@H]2C[C@@H](O)CN2C(=O)[C@H](NC(=O)[C@H]2CCC3(CC2)C[C@H](N2CCC(c4cnc(N5CCN6c7cc(-c8ccccc8O)nnc7NC[C@H]6C5)nc4)CC2)C3)C(C)(C)CCO)cc1 (single isomer, unassigned) [I-248] |  | > 100 nM |  | > 100 nM | D (D (<10 fold)) |  | > 100 nM | < 50% | < 50% | < 50% |
| C#Cc1ccc(CNC(=O)[C@@H]2C[C@@H](O)CN2C(=O)[C@@H](NC(=O)N2CCC[C@@H](CN3CCC(N4CCC(N5CCN6c7cc(-c8ccccc8O)nnc7NC[C@H]6C5)CC4)CC3)C2)C(C)(C)C)cc1 (single isomer, unassigned) [I-253] |  | > 100 nM |  | > 100 nM | D (D (<10 fold)) |  | > 100 nM | < 50% | < 50% | < 50% |
| C#Cc1ccc(CNC(=O)[C@@H]2C[C@@H](O)CN2C(=O)[C@@H](NC(=O)N2CC3(CC(N4CCC(c5cnc(N6CCc7[nH]c8nnc(-c9ccccc9O)cc8c7[C@H]6C)nc5)CC4)C3)C2)C(C)(C)CCOCC(=O)O)cc1 (single isomer, unassigned) [I-262] |  | > 100 nM |  | 10 to 100 nM | C (C (10-100 fold)) |  | > 100 nM | 50 to 70% | 70 to 90% | 50 to 70% |
| C#Cc1ccc(CNC(=O)[C@@H]2C[C@@H](O)CN2C(=O)[C@H](NC(=O)N2CC3(CC(N4CCC(c5cnc(N6CCc7[nH]c8nnc(-c9ccccc9O)cc8c7[C@H]6C)nc5)CC4)C3)C2)C(C)(C)CCOCC(=O)O)cc1 (single isomer, unassigned) [I-263] |  | > 100 nM |  | > 100 nM | C (C (10-100 fold)) |  | > 100 nM | < 50% | < 50% | < 50% |

Reference: patent US20250170248A1, “SMARCA DEGRADERS AND USES THEREOF” (Kymera Therapeutics, Inc., priority 2021, published 2025)
